Reference: PubChem BioAssay AID743469 (Vanderbilt Specialized Chemistry Center, 2014)
Active and inactive are the calls of the source. No rule for the calls is given here.

Target: Histone-lysine N-methyltransferase 2A (Homo sapiens) (UniProt Q03164)
Assay: disruptors of menin binding to MLL peptide – biochemical, fluorescence polarization, SAR follow-up (AID 743469)
Settings: menin + fluorescein MLL peptide

Histone-lysine N-methyltransferase 2A (Homo sapiens), sequence (Q03164 whole entry, looked up): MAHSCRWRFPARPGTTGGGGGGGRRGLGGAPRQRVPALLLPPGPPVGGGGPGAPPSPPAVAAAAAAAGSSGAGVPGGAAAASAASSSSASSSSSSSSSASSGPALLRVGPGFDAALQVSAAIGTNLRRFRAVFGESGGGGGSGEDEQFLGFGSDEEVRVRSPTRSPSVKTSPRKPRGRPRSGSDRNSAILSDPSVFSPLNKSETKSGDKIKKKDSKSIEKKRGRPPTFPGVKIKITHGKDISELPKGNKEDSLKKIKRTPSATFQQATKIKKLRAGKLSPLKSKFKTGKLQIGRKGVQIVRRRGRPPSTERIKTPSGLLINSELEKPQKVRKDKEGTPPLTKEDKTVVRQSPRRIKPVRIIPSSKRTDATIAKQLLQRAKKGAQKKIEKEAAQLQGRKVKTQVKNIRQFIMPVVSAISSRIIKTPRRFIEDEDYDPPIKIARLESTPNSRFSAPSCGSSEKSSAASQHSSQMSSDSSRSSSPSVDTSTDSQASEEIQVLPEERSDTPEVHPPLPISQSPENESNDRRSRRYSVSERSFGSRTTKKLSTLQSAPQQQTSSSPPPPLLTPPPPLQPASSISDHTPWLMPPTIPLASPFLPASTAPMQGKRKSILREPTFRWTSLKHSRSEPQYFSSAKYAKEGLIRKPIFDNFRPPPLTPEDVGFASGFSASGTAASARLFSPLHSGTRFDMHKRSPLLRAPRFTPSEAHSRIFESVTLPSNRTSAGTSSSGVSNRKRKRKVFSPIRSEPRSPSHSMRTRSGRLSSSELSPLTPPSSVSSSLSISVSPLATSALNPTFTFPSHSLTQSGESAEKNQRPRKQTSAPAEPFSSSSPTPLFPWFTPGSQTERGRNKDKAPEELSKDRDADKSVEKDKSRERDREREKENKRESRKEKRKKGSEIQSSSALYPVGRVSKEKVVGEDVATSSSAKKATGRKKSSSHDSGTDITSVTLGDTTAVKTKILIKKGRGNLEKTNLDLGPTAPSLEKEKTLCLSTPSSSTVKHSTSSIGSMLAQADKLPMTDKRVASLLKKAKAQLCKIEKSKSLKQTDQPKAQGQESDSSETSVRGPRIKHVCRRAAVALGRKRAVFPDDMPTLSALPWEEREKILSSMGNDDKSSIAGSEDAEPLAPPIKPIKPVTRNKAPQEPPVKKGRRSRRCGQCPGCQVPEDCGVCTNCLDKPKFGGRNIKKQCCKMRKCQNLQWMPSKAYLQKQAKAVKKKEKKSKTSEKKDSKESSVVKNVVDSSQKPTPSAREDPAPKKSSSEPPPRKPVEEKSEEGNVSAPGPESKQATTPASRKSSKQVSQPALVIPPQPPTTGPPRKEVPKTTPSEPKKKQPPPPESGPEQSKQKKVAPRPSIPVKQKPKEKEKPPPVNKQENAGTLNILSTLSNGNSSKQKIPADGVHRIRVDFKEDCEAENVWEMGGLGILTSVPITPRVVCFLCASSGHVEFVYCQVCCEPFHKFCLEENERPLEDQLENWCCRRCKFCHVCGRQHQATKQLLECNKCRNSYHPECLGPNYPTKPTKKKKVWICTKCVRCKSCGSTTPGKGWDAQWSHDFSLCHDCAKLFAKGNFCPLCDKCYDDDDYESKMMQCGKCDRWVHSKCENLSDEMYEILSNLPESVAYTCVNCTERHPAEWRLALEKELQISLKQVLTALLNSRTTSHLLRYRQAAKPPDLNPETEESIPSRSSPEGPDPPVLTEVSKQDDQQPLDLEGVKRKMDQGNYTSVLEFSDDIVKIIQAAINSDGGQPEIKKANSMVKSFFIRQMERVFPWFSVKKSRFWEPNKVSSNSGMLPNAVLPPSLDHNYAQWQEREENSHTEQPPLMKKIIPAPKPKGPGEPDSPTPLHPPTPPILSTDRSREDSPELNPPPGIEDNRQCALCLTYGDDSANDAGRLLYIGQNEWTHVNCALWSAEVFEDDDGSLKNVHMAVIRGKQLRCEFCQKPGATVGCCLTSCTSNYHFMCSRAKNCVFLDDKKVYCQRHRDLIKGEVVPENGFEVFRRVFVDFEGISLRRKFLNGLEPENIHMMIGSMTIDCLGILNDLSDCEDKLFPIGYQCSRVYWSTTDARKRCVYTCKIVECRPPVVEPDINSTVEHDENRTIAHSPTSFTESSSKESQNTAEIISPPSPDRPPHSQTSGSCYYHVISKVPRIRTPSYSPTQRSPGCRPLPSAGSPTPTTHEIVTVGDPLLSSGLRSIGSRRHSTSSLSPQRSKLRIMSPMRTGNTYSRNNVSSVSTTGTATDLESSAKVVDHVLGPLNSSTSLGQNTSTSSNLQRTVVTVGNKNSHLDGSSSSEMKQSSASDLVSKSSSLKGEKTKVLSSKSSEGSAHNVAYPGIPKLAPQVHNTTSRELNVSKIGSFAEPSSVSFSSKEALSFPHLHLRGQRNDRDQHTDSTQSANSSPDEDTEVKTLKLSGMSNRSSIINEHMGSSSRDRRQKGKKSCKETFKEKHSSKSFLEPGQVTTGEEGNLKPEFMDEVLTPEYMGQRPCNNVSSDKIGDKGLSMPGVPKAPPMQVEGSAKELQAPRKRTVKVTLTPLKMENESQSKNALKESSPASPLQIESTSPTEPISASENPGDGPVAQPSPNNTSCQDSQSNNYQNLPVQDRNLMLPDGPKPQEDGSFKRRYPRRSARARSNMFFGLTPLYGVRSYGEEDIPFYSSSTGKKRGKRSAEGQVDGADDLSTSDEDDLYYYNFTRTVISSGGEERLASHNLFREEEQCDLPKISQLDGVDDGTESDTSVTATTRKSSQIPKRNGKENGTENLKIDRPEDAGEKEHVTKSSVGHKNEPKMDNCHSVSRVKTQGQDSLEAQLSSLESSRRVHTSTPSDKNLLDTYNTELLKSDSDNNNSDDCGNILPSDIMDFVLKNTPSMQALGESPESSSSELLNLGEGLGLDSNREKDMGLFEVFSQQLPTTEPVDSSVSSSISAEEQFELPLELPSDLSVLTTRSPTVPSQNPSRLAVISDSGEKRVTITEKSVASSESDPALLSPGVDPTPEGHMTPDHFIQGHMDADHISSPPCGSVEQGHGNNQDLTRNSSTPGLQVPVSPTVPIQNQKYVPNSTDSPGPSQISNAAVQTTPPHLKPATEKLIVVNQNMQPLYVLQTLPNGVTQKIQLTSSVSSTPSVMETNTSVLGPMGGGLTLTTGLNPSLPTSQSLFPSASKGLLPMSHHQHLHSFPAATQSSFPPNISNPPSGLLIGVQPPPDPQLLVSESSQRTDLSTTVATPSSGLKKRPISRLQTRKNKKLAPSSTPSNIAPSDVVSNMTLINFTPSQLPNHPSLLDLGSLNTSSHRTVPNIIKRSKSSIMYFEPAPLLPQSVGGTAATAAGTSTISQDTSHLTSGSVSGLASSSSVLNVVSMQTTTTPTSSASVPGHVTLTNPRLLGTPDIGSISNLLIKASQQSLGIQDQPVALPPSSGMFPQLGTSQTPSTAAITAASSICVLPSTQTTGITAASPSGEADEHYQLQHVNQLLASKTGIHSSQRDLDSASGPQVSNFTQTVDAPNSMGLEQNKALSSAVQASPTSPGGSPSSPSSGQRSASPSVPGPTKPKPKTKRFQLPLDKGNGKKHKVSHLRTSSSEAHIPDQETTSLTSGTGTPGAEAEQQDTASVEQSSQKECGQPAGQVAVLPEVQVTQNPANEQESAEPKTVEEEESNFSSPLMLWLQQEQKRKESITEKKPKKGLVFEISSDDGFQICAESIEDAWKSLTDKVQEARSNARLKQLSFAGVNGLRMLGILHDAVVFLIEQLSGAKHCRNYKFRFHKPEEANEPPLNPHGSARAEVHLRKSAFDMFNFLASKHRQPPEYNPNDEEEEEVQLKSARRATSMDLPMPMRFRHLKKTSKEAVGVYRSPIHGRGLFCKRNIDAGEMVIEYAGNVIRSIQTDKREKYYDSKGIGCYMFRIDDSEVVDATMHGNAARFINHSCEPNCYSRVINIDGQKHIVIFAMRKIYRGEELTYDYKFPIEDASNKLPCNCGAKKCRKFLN

SMILES	IC50 [nM]	outcome
N#Cc1ccc(OCCCN2CCC(C(O)(c3ccccc3)C3CCCC3)CC2)nc1 (stereo not given)		inactive
N#Cc1ccc(OCCCN2CCC(C(O)(c3cccnc3)C3CCCC3)CC2)cc1 (stereo not given)	709	
N#Cc1ccc(OCCCN2CCC(C(O)(c3cc(F)cc(F)c3)c3ccccn3)CC2)cc1 (stereo not given)	43.7	

More lines, in order of falling IC50, values ahead:

IC50 [nM]	outcome	SMILES
43.7		NS(=O)(=O)c1ccc(OCCCN2CCC(C(O)(c3cccc(F)c3)c3nccs3)CC2)cc1 (stereo not given)
19.7		N#Cc1ccc(OCCCN2CCC(C(O)(c3cccc(F)c3)c3nccs3)CC2)cc1 (stereo not given)
